Measurements from patent publication US20240270762A1, “PENICILLIN-BINDING PROTEIN INHIBITORS” (priority 2021, published 2024).
Converted amounts (≈) assume the structure as drawn.

How the values were obtained:
N. gonorrhoeae WHO L = test: Liquid broth MIC in Fastidious broth; settings: Neisseria gonorrhoeae, read-out: Minimum Inhibitory Concentration (MIC), N. gonorrhoeae WHO L
K. pneumoniae UMM = test: microbe, parasite or virus in culture; type: cell-based; settings: Klebsiella pneumoniae, read-out: MIC K. pneumoniae UMM
E. coli AG100 = test: microbe, parasite or virus in culture; type: cell-based; settings: Escherichia coli, AG100, read-out: MIC E. coli AG100
K. pneumoniae SI-117 = test: microbe, parasite or virus in culture; type: cell-based; settings: Klebsiella pneumoniae, SI117, read-out: MIC K. pneumoniae SI-117
E. coli D22 = test: microbe, parasite or virus in culture; type: cell-based; settings: Escherichia coli, D22, read-out: MIC E. coli D22
P. aeruginosa ATCC 27853 = test: microbe, parasite or virus in culture; type: cell-based; settings: Pseudomonas aeruginosa, ATCC27853, read-out: MIC P. aeruginosa ATCC 27853
E. coli 901C = test: microbe, parasite or virus in culture; type: cell-based; settings: Escherichia coli, read-out: MIC E. coli 901C
N. gonorrhoeae WHO G = test: Liquid broth MIC in Fastidious broth; settings: Neisseria gonorrhoeae, read-out: Minimum Inhibitory Concentration (MIC), N. gonorrhoeae WHO G
N. gonorrhoeae WHO K = test: Liquid broth MIC in Fastidious broth; settings: Neisseria gonorrhoeae, read-out: Minimum Inhibitory Concentration (MIC), N. gonorrhoeae WHO K
N. gonorrhoeae FA1090 = test: Liquid broth MIC in Fastidious broth; settings: Neisseria gonorrhoeae, FA1090, read-out: Minimum Inhibitory Concentration (MIC), N. gonorrhoeae FA 1090
Description: Additional antibacterial testing of the series was performed in 8 reference strains of N. gonorrhoeae (ATCC 49226, FA1090, MS 11, WHO G, WHO L, WHO M, WHO K, WHO X, WHO Z, WHO Q, CDC-0197). ATCC 49226, FA1090, MS11, WHO G, WHO L, and WHO M produce wild type or wild-type like PBP2. WHO K, WHO X, WHO Z, WHO Q, and CDC-0197 produce mosaic PBP2. Liquid broth-based assays were used for antibacterial testing of PBP inhibitors in Neisseria gonorrhoeae. Briefly, cryo-preserved bacterial cultures of clinical strains were streaked for isolation on Chocolate Agar (72 g/L (2×) GC Agar Base (BD #228950) and 2% (2×) Hemoglobin was autoclaved at 121° C. for 20 minutes to sterilize. Once cooled to ˜50° C. the 2×GC Agar Base and 2× Hemoglobin solutions are combined and 1% IsoVitaleX Enrichment (BD #211876) was added to the solution). Strains were incubated at 36° C. and 5% CO2 to allow growth of colonies, 24 hours before inoculum preparation. 2-fold serial dilutions of test compounds were conducted in a 96 well plate with a final volume of 75 μL per well at 2-fold the final desired concentration in Fastidious broth (Remel #R07664). For preparation of assay inoculum, a direct suspension was prepared by aseptically swabbing 10-15 colonies from agar plates into culture tubes containing 2 mL of fresh sterile saline. After the dilution plates were set up, direct suspensions were then diluted in a cuvette containing sterile saline and the optical density was measured at 600 nm. Inocula were diluted such that 75 μL of this culture in Fastidious broth results in a starting bacterial concentration of 5×10^5 CFU/mL when added to the dilution plates. The plates were incubated for ˜24 hours at 36° C. and 5% CO2.

N. gonorrhoeae WHO Z = test: Liquid broth MIC in Fastidious broth; settings: Neisseria gonorrhoeae, read-out: Minimum Inhibitory Concentration (MIC), N. gonorrhoeae WHO Z
N. gonorrhoeae MS11 = test: Liquid broth MIC in Fastidious broth; settings: Neisseria gonorrhoeae, MS11, read-out: Minimum Inhibitory Concentration (MIC), N. gonorrhoeae MS11
P. aeruginosa ATCC 35151 = test: microbe, parasite or virus in culture; type: cell-based; settings: Pseudomonas aeruginosa, ATCC35151, read-out: MIC P. aeruginosa ATCC 35151

| SMILES | MIC (N. gonorrhoeae WHO L) [µg/mL] | MIC (K. pneumoniae UMM) [µg/mL] | MIC (E. coli AG100) [µg/mL] | MIC (K. pneumoniae SI-117) [µg/mL] | MIC (E. coli D22) [µg/mL] | MIC (P. aeruginosa ATCC 27853) [µg/mL] | MIC (E. coli 901C) [µg/mL] | MIC (N. gonorrhoeae WHO G) [µg/mL] | MIC (N. gonorrhoeae WHO K) [µg/mL] | MIC (N. gonorrhoeae FA1090) [µg/mL] | MIC (N. gonorrhoeae WHO Z) [µg/mL] | MIC (N. gonorrhoeae MS11) [µg/mL] | MIC (P. aeruginosa ATCC 35151) [µg/mL] |
| --- | --- | --- | --- | --- | --- | --- | --- | --- | --- | --- | --- | --- | --- |
| Nc1ncc(C(=O)N[C@@H](C(=O)N[C@H]2Cc3cccc(C(=O)O)c3OB2O)c2ccc(P(=O)(O)O)cc2)s1 (racemic) [Example 50, (R)-3-((S)-2-(2-aminothiazole-5-carboxamido)-2-(4-phosphonophenyl)acetamido)-2-hydroxy-3,4-dihydro-2H-benzo[e][1,2]oxaborinine-8-carboxylic acid and (R)-3-((R)-2-(2-aminothiazole-5-carboxamido)-2-(4-phosphonophenyl)acetamido)-2-hydroxy-3,4-dihydro-2H-benzo[e][1,2]oxaborinine-8-carboxylic acid] | 16 to 32 (≈ 29.3 to 58.6 µM) | > 128 | > 128 | > 128 | 32 to 64 (≈ 58.6 to 117 µM) | > 128 | 8 to 16 (≈ 14.6 to 29.3 µM) | 1 to 2 (≈ 1.83 to 3.66 µM) | 16 to 32 (≈ 29.3 to 58.6 µM) | 1 to 2 (≈ 1.83 to 3.66 µM) | 16 to 32 (≈ 29.3 to 58.6 µM) | 4 to 8 (≈ 7.32 to 14.6 µM) | 2 to 4 (≈ 3.66 to 7.32 µM) |
| CN1CCC[C@@H]1C(=O)N[C@@H](C(=O)N[C@H]1Cc2cccc(C(=O)O)c2OB1O)c1ccc(P(=O)(O)O)cc1 (racemic) [Example 54, (R)-2-hydroxy-3-((S)-2-((R)-1-methylpyrrolidine-2-carboxamido)-2-(4-phosphonophenyl)acetamido)-3,4-dihydro-2H-benzo[e][1,2]oxaborinine-8-carboxylic acid and (R)-2-hydroxy-3-((R)-2-((R)-1-methylpyrrolidine-2-carboxamido)-2-(4-phosphonophenyl)acetamido)-3,4-dihydro-2H-benzo[e][1,2]oxaborinine-8-carboxylic acid] | 16 to 32 (≈ 30.1 to 60.2 µM) | > 128 | > 128 | > 128 | > 128 | > 128 | 32 to 64 (≈ 60.2 to 120 µM) | 16 to 32 (≈ 30.1 to 60.2 µM) | 16 to 32 (≈ 30.1 to 60.2 µM) | 4 to 8 (≈ 7.53 to 15.1 µM) | 16 to 32 (≈ 30.1 to 60.2 µM) | 16 to 32 (≈ 30.1 to 60.2 µM) | 32 to 64 (≈ 60.2 to 120 µM) |
| CCN1CCN(C(=O)N[C@H](C(=O)N[C@H]2Cc3ccc(F)c(C(=O)O)c3OB2O)c2ccc(P(=O)(O)O)cc2)C(=O)C1=O (single isomer, unassigned) [Example 9] | 4 to 8 (≈ 6.6 to 13.2 µM) | > 128 | > 128 | > 128 | 32 to 64 (≈ 52.8 to 106 µM) | > 128 | 2 to 4 (≈ 3.3 to 6.6 µM) | < 1 | 1 to 2 (≈ 1.65 to 3.3 µM) | < 1 | < 1 | 1 to 2 (≈ 1.65 to 3.3 µM) | 8 to 16 (≈ 13.2 to 26.4 µM) |
| Cn1cccc(C(=O)N[C@H](C(=O)N[C@H]2Cc3cccc(C(=O)O)c3OB2O)c2ccc(P(=O)(O)O)cc2)c1=O (single isomer, unassigned) [Example 181] | 16 to 32 (≈ 28.8 to 57.6 µM) | > 128 | > 128 | > 128 | > 128 | > 128 | 32 to 64 (≈ 57.6 to 115 µM) | 4 to 8 (≈ 7.2 to 14.4 µM) | 16 to 32 (≈ 28.8 to 57.6 µM) | 1 to 2 (≈ 1.8 to 3.6 µM) | 16 to 32 (≈ 28.8 to 57.6 µM) | 4 to 8 (≈ 7.2 to 14.4 µM) | 8 to 16 (≈ 14.4 to 28.8 µM) |
| O=C(O)c1cccc2c1OB(O)[C@@H](NC(=O)[C@@H](NC(=O)c1cccn(C(F)F)c1=O)c1ccc(P(=O)(O)O)cc1)C2 (single isomer, unassigned) [Example 190] | 16 to 32 (≈ 27.1 to 54.1 µM) | > 128 | > 128 | > 128 | 32 to 64 (≈ 54.1 to 108 µM) | > 128 | 2 to 4 (≈ 3.38 to 6.77 µM) | 1 to 2 (≈ 1.69 to 3.38 µM) | 16 to 32 (≈ 27.1 to 54.1 µM) | < 1 | 4 to 8 (≈ 6.77 to 13.5 µM) | 4 to 8 (≈ 6.77 to 13.5 µM) | 2 to 4 (≈ 3.38 to 6.77 µM) |
| O=C(O)c1cccc2c1OB(O)[C@@H](NC(=O)[C@H](NC(=O)c1cccn(C(F)F)c1=O)c1ccc(P(=O)(O)O)cc1)C2 (single isomer, unassigned) [Example 191] | 4 to 8 (≈ 6.77 to 13.5 µM) | > 128 | > 128 | > 128 | 8 to 16 (≈ 13.5 to 27.1 µM) | > 128 | < 1 | < 1 | 4 to 8 (≈ 6.77 to 13.5 µM) | < 1 | 1 to 2 (≈ 1.69 to 3.38 µM) | 1 to 2 (≈ 1.69 to 3.38 µM) | < 1 |
| O=C(O)c1cccc2c1OB(O)[C@@H](NC(=O)[C@@H](NC(=O)c1cnc3sccn3c1=O)c1ccc(P(=O)(O)O)cc1)C2 (single isomer, unassigned) [Example 194] | 16 to 32 (≈ 26.7 to 53.5 µM) | > 128 | > 128 | > 128 | 32 to 64 (≈ 53.5 to 107 µM) | > 128 | 2 to 4 (≈ 3.34 to 6.69 µM) | 4 to 8 (≈ 6.69 to 13.4 µM) | 16 to 32 (≈ 26.7 to 53.5 µM) | 1 to 2 (≈ 1.67 to 3.34 µM) | 16 to 32 (≈ 26.7 to 53.5 µM) | 4 to 8 (≈ 6.69 to 13.4 µM) | 2 to 4 (≈ 3.34 to 6.69 µM) |
| O=C(O)c1cccc2c1OB(O)[C@@H](NC(=O)[C@H](NC(=O)c1cnc3sccn3c1=O)c1ccc(P(=O)(O)O)cc1)C2 (single isomer, unassigned) [Example 195] | 16 to 32 (≈ 26.7 to 53.5 µM) | > 128 | > 128 | > 128 | 8 to 16 (≈ 13.4 to 26.7 µM) | 32 to 64 (≈ 53.5 to 107 µM) | 2 to 4 (≈ 3.34 to 6.69 µM) | 1 to 2 (≈ 1.67 to 3.34 µM) | 16 to 32 (≈ 26.7 to 53.5 µM) | < 1 | 4 to 8 (≈ 6.69 to 13.4 µM) | 4 to 8 (≈ 6.69 to 13.4 µM) | < 1 |
| O=C(O)c1cccc2c1OB(O)[C@@H](NC(=O)C(NC(=O)[C@H]1CCCN1)c1ccc(P(=O)(O)O)cc1)C2 (stereo partly drawn) [Example 52, (3R)-2-hydroxy-3-(2-(4-phosphonophenyl)-2-((R)-pyrrolidine-2-carboxamido)acetamido)-3,4-dihydro-2H-benzo[e][1,2]oxaborinine-8-carboxylic acid] | 4 to 8 (≈ 7.73 to 15.5 µM) | 32 to 64 (≈ 61.9 to 124 µM) | > 128 | 32 to 64 (≈ 61.9 to 124 µM) | 32 to 64 (≈ 61.9 to 124 µM) | > 128 | 32 to 64 (≈ 61.9 to 124 µM) | 16 to 32 (≈ 30.9 to 61.9 µM) | 16 to 32 (≈ 30.9 to 61.9 µM) | 16 to 32 (≈ 30.9 to 61.9 µM) | 16 to 32 (≈ 30.9 to 61.9 µM) | 16 to 32 (≈ 30.9 to 61.9 µM) | 8 to 16 (≈ 15.5 to 30.9 µM) |
| O=C1CC[C@H](C(=O)NC(C(=O)N[C@H]2Cc3cccc(C(=O)O)c3OB2O)c2ccc(P(=O)(O)O)cc2)N1 (stereo partly drawn) [Example 53, (3R)-2-hydroxy-3-(2-((R)-5-oxopyrrolidine-2-carboxamido)-2-(4-phosphonophenyl)acetamido)-3,4-dihydro-2H-benzo[e][1,2]oxaborinine-8-carboxylic acid] | 16 to 32 (≈ 30.1 to 60.2 µM) | > 128 | > 128 | > 128 | 32 to 64 (≈ 60.2 to 120 µM) | > 128 | 8 to 16 (≈ 15.1 to 30.1 µM) | 1 to 2 (≈ 1.88 to 3.76 µM) | 16 to 32 (≈ 30.1 to 60.2 µM) | 1 to 2 (≈ 1.88 to 3.76 µM) | 16 to 32 (≈ 30.1 to 60.2 µM) | 1 to 2 (≈ 1.88 to 3.76 µM) | 8 to 16 (≈ 15.1 to 30.1 µM) |
